Results as given in patent US20240052423A1, “METHODS OF IDENTIFYING A TUMOR THAT IS SENSITIVE TO TREATMENT WITH TALAZOPARIB AND METHODS OF TREATMENT THEREOF” (PFIZER INC., priority 2020, published 2024).

Tests used:
Type in all cases: in vivo, human
[1] = test system: other solid tumors with a mutation in homologous recombination; assay: Phase II clinical trial of talazoparib, best response by RECIST v.1.1, non-breast cancer cohort; conditions: Non-Breast Cancer (N = 7), 1 mg orally daily
Protocol: (§1) A phase II clinical trial of the PARP inhibitor talazoparib in BRCA1 and BRCA2 wild-type patients with HER2-negative advanced breast cancer or other solid tumors with a mutation in homologous recombination was conducted as shown in FIG. 1. Eligible patients were adults (≥18 years old) with HER2-negative advanced or metastatic breast cancer that had progressed on at least 1 prior line of therapy for metastatic disease. Eligible patients also included adults (≥18 years old) with advanced or metastatic solid tumors beyond breast cancer that had progressed on at least one prior line of therapy. Patients were required to have no pathogenic mutations in either BRCA1 or BRCA2 genes on germline or somatic testing. They were required to have a pathogenic or likely pathogenic mutation in a HR-pathway associated gene detected on multiplex germline or somatic testing. These genes include: PALB2, CHEK2, ATM, NBN, BARD1, BRIP1, RAD50, RAD51C, RAD51D, MRE11, ATR, PTEN, Fanconi anemia complementation group of genes (FANCA, FANCC, FANCD2, FANCE, FANCF, FANCG, FANCL), plus other HR-related genes at the discretion of the primary investigators. Measurable disease by RECIST version 1.1 was required. There was no upper limit on the number of prior systemic therapies allowed prior to study entry. Patients were not allowed to have progressed during therapy with a platinum agent or within 8 weeks of discontinuing a platinum agent. Subjects were required to have an Eastern Cooperative Oncology Group (ECOG) performance status (PS) of 0-2 and adequate organ function based on screening laboratory values of liver, renal and hematologic parameters. The ability to take oral medications was required. Sexually active patients of childbearing potential were mandated to use contraception and females of childbearing age were tested for pregnancy at screening; females were not permitted to participate if pregnant or nursing and were tested for pregnancy at screening. Patients were excluded if they previously took any PARP inhibitor, had taken any anti-cancer therapy within 21-days of study entry, received radiation therapy within 14 days of study entry, had active brain metastasis requiring treatment or leptomeningeal disease. Patients with human immunodeficiency virus infection or active hepatitis C or hepatitis B viral infections were excluded. Also, patients requiring prolonged hospitalization, major surgery or receiving other investigational agent within 21 days prior to study entry were excluded. Additional key exclusion criteria were: other medical co-morbidity likely to interfere with study participation eg. infection grade ≥3 CTCAE version 4, or requiring parenteral antibiotics within 7 days, or known hypersensitivity to talazoparib. Talazoparib was administered at 1 mg orally daily continuously, taken whole, at approximately the same time each day. Treatment cycles lasted 28 days. Patients were evaluated on day 1 of each treatment cycle by physician assessment including medical history, physical examination, laboratory values (complete blood count (CBC) and comprehensive metabolic panel), vital signs, ECOG PS assessment and urine pregnancy test (for women of childbearing age only). Day 14 physician assessment was required for the first cycle and CBCs were required weekly for the first cycle, then prior to start of each subsequent cycle. Treatment continued until disease progressed or unacceptable toxicity. Safety was assessed at each physician visit and monitored continuously by laboratory values, patient reporting and patient diary. Adverse events (AEs) and severe AEs (SAEs) were graded according to CTCAE version 4.0. SAEs grade ≥3 were reported to the Data Safety Monitoring Committee. Tumor evaluation was performed at baseline and after every two cycles and responses were assessed according to RECIST version 1.1. After six cycles, tumor evaluations were allowed every 3 cycles per physician discretion. […]

[2] = test system: HER2-negative advanced breast cancer or other solid tumors with a mutation in homologous recombination; assay: Phase II clinical trial of talazoparib, best response by RECIST v.1.1, combined cohorts
Protocol: as §1

[3] = test system: HER2-negative advanced or metastatic breast cancer with a non-BRCA1/2 mutation in homologous recombination; assay: Phase II clinical trial of talazoparib, best response by RECIST v.1.1, breast cancer cohort; conditions: Breast Cancer (N = 13), 1 mg orally daily
Protocol: as §1

[4] = Combined (N = 20), 1 mg orally daily, RECIST v.1.1

In the case of `Cn1ncnc1[C@H]1c2n[nH]c(=O)c3cc(F)cc(c23)N[C@@H]1c1ccc(F)cc1` [talazoparib, (8S,9R)-5-fluoro-8-(4-fluorophenyl)-9-(1-methyl-1H-1,2,4-triazol-5-yl)-8,9-dihydro-2H-pyrido[4,3,2-de]phthalazin-3(7H)-one], the “CBR (CR + PR + SD ≥ 6 mos)” value [1] was 2 (29%); n (%), the “ORR (CR + PR)” value ([1]; 95% CI: 0-41%) was 0 (0%); n (%) and the “Complete Response (CR), response rate” value ([1]; RECIST v.1.1) was 0 (0%) n (%). For the same compound, the “Partial Response (PR), response rate” value ([1]; RECIST v.1.1) was 0 (0%) n (%), the “Progressive Disease (PD), response rate” value ([1]; RECIST v.1.1) was 3 (43%) n (%) and the “Stable Disease (SD), response rate” value ([1]; RECIST v.1.1) was 4 (57%) n (%). The “ORR (CR + PR)” value ([2]; Combined (N = 20), 1 mg orally daily, 95% CI: 6-44%) was 4 (20%); n (%), the “CBR (CR + PR + SD ≥ 6 mos)” value ([2]; Combined (N = 20), 1 mg orally daily, 95% CI: 23-68%) was 9 (45%); n (%) and the “Complete Response (CR), response rate” value [2, 4] was 0 (0%) n (%). The “Partial Response (PR), response rate” value [2, 4] was 4 (20%) n (%), the “Progressive Disease (PD), response rate” value [2, 4] was 6 (30%) n (%) and the “Stable Disease (SD), response rate” value [2, 4] was 10 (50%) n (%). For the same compound, the “partial responses observed in the first stage” value ([2]; first stage of 10 patients) was “two”, the “ORR (CR + PR)” value ([3]; 95% CI: 9-61%) was 4 (31%); n (%) and the “CBR (CR + PR + SD ≥ 6 mos)” value ([3]; 95% CI: 21-81%) was 7 (54%); n (%). For the same compound, the “Complete Response (CR), response rate” value ([3]; RECIST v.1.1) was 0 (0%) n (%), the “Partial Response (PR), response rate” value ([3]; RECIST v.1.1) was 4 (31%) n (%) and the “Progressive Disease (PD), response rate” value ([3]; RECIST v.1.1) was 3 (23%) n (%). The “Stable Disease (SD), response rate” value ([3]; RECIST v.1.1) was 6 (46%) n (%).
